Measurements from patent US8349883B2, “Hydroxamate-based inhibitors of deacetylases B” (Novartis AG, priority 2008, dated 2013).

How the values were obtained:
HCT116 = HCT116 IC50; assay type: cell-based; settings: Homo sapiens, HCT-116
HDAC-1 = biological target: T1, HDAC-1 (Homo sapiens, UniProt Q13547); assay: HDAC inhibition assay (purified GST-HDAC protein); assay type: biochemical
T1 construct: made in house; host or cells: Sf9 or Sf21 insect cells (baculovirus, donor vector pFB-GSTX3)
T1 sequence (Q13547 whole entry, species assumed): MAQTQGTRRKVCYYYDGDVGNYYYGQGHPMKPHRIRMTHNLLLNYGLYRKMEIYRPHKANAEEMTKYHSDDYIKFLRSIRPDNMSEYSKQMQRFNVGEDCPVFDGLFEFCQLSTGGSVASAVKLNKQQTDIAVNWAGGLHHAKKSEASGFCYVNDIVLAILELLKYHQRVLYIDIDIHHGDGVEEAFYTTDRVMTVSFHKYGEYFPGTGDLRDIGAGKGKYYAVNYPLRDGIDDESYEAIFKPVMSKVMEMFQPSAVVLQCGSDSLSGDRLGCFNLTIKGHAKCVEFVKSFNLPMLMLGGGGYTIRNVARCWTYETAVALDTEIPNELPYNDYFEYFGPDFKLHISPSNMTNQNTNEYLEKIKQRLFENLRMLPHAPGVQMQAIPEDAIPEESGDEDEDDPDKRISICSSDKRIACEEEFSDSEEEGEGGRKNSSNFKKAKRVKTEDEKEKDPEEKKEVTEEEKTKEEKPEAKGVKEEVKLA

| SMILES | IC50 (HCT116) | IC50 (HDAC-1) |
| --- | --- | --- |
| O=C(/C=C/c1ccc([C@@H]2CCCN2CCn2ccc(C(F)(F)F)n2)cc1)NO [Compound 73, (E)-N-Hydroxy-3-(4-{(S)-1-[2-(3-trifluoromethyl-pyrazol-1-yl)-ethyl]-pyrrolidin-2-yl}-phenyl)-acrylamide] | 230 nM | 71 nM |
| O=C(/C=C/c1ccc([C@@H]2CCCN2CCc2cn(CCOCc3ccccc3)nn2)cc1)NO [Compound 76, (E)-3-[4-((S)-1-{2-[1-(2-Benzyloxy-ethyl)-1H-[1,2,3]triazol-4-yl]-ethyl}-pyrrolidin-2-yl)-phenyl]N-hydroxy-acrylamide] | 210 nM | 31 nM |
| C[Si](C)(C)Cn1cc(CCN2CCC[C@H]2c2ccc(/C=C/C(=O)NO)cc2)nn1 [Compound 77, (E)-N-Hydroxy-3-(4-{(S)-1-[2-(1-trimethylsilanylmethyl-1H-[1,2,3]triazol-4-yl)-ethyl]-pyrrolidin-2-yl}-phenyl)-acrylamide] | 110 nM | 25 nM |
| O=C(/C=C/c1ccc([C@@H]2CCCN2CCc2cn(Cc3ccccc3)nn2)cc1)NO [Compound 78, (E)-3-(4-{(S)-1-[2-(1-Benzyl-1H-[1,2,3]triazol-4-yl)-ethyl]-pyrrolidin-2-yl}-phenyl)-N-hydroxy-acrylamide] | 120 nM | 22 nM |
| Nc1ccc(-n2cc(CCN3CCC[C@H]3c3ccc(/C=C/C(=O)NO)cc3)nn2)cc1 [Compound 79, (E)-3-[4-((S)-1-{2-[1-(4-Amino-phenyl)-1H-[1,2,3]triazol-4-yl]-ethyl}-pyrrolidin-2-yl)-phenyl]-N-hydroxy-acrylamide] | 43 nM | 6 nM |
| Cn1nnc(CCN2CCC[C@H]2c2ccc(/C=C/C(=O)NO)cc2)n1 [Compound 81, (E)-N-Hydroxy-3-(4-{(S)-1-[2-(2-methyl-2H-tetrazol-5-yl)-ethyl]-pyrrolidin-2-yl}-phenyl)-acrylamide] | 230 nM | 67 nM |
| O=C(/C=C/c1ccc([C@@H]2CCCCN2CCc2cnn3ccccc23)cc1)NO [Compound 85, (E)-N-Hydroxy-3-{4-[(S)-1-(2-pyrazolo[1,5-a]pyridin-3-yl-ethyl)-piperidin-2-yl]-phenyl}-acrylamide] | 9 nM | 4 nM |
| O=C(/C=C/c1ccc([C@@H]2CCCCCN2CCc2cnn3ccccc23)cc1)NO [Compound 86, (E)-N-Hydroxy-3-{4-[(S)-1-(2-pyrazolo[1,5-a]pyridin-3-yl-ethyl)-azepan-2-yl]-phenyl}-acrylamide] | 42 nM | 10 nM |
| Cc1[nH]c2ccccc2c1CCN1CCN(C(=O)OC(C)(C)C)CC1c1ccc(/C=C/C(=O)NO)cc1 (stereo not shown) [Compound 87, 3-[4-((E)-2-Hydroxycarbamoyl-vinyl)-phenyl]-4-[2-(2-methyl-1H-indol-3-yl)-ethyl]-piperazine-1-carboxylic acid tert-butyl ester] | 58 nM | 35 nM |
| Cc1[nH]c2ccccc2c1CCN1CCN(C)CC1c1ccc(/C=C/C(=O)NO)cc1 (stereo not shown) [Compound 88, (E)-N-Hydroxy-3-(4-{4-methyl-1-[2-(2-methyl-1H-indol-3-yl)-ethyl]-piperazin-2-yl}-phenyl)-acrylamide] | 24 nM | 9 nM |
| Cc1[nH]c2ccccc2c1CCN1CCNCC1c1ccc(/C=C/C(=O)NO)cc1 (stereo not shown) [Compound 89, (E)-N-Hydroxy-3-(4-{1-[2-(2-methyl-1H-indol-3-yl)-ethyl]-piperazin-2-yl}-phenyl)-acrylamide] | 200 nM | 7 nM |
| CN1CCN(CCc2cnn3ccccc23)C(c2ccc(/C=C/C(=O)NO)cc2)C1 (stereo not shown) [Compound 90, (E)-N-Hydroxy-3-{4-[4-methyl-1-(2-pyrazolo[1,5-a]pyridin-3-yl-ethyl)-piperazin-2-yl]-phenyl}-acrylamide] | 34 nM | 8 nM |
| O=C(/C=C/c1ccc([C@@H]2CCCN2CCc2cnn3ccccc23)c(F)c1)NO [Compound 91, (E)-3-{3-Fluoro-4-[(S)-1-(2-pyrazolo[1,5-a]pyridin-3-yl-ethyl)-pyrrolidin-2-yl]-phenyl}-N-hydroxy-acrylamide] | 2 nM | 4 nM |
| O=C(/C=C/c1ccc([C@@H]2CCCN2CCc2cnn3ccccc23)c(Cl)c1)NO [Compound 92, (E)-3-{3-Chloro-4-[(S)-1-(2-pyrazolo[1,5-a]pyridin-3-yl-ethyl)-pyrrolidin-2-yl]-phenyl}-N-hydroxy-acrylamide] | 3 nM | 4 nM |
| O=C(/C=C/c1ccc([C@@H]2CCCN2CCc2cnn3ccccc23)cc1F)NO [Compound 93, (E)-3-{2-Fluoro-4-[(S)-1-(2-pyrazolo[1,5-a]pyridin-3-yl-ethyl)-pyrrolidin-2-yl]-phenyl}-N-hydroxy-acrylamide] | 1.1 nM | 1.4 nM |
| O=C(/C=C/c1cc(F)c([C@@H]2CCCN2CCc2cnn3ccccc23)c(F)c1)NO [Compound 94, (E)-3-{3,5-Difluoro-4-[(S)-1-(2-pyrazolo[1,5-a]pyridin-3-yl-ethyl)-pyrrolidin-2-yl]-phenyl}-N-hydroxy-acrylamide] | 5 nM | 1.4 nM |

| SMILES | IC50 (HCT116) | IC50 (HDAC-1) |
| --- | --- | --- |
| Cc1n[nH]c(C)c1CCN1CCC[C@H]1c1ccc(/C=C/C(=O)NO)cc1 [Compound 95, (E)-3-(4-{(S)-1-[2-(3,5-Dimethyl-1H-pyrazol-4-yl)-ethyl]-pyrrolidin-2-yl}-phenyl)-N-hydroxy-acrylamide] | 3 nM | 1.6 nM |
| CCn1nc(C)c(CCN2CCC[C@H]2c2ccc(/C=C/C(=O)NO)cc2)c1C [Compound 96, (E)-3-(4-{(S)-1-[2-(1-Ethyl-3,5-dimethyl-1H-pyrazol-4-yl)-ethyl]-pyrrolidin-2-yl}-phenyl)-N-hydroxy-acrylamide] | 2 nM | 1.7 nM |
| CCCCn1nc(C)c(CCN2CCC[C@H]2c2ccc(/C=C/C(=O)NO)cc2)c1C [Compound 97, (E)-3-(4-{(S)-1-[2-(1-Butyl-3,5-dimethyl-1H-pyrazol-4-yl)-ethyl]-pyrrolidin-2-yl}-phenyl)-N-hydroxy-acrylamide] | 1.7 nM | 1.7 nM |
| O=C(/C=C/c1ccc([C@@H]2CCCN2CCS(=O)(=O)c2ccccc2)cc1)NO [Compound 98, (E)-3-{4-[(S)-1-(2-Benzenesulfonyl-ethyl)-pyrrolidin-2-yl]-phenyl}-N-hydroxy-acrylamide] | 50 nM | 36 nM |
| CCc1n[nH]c(CC)c1CCN1CCC[C@H]1c1ccc(/C=C/C(=O)NO)cc1 [Compound 99, (E)-3-(4-{(S)-1-[2-(3,5-Diethyl-1H-pyrazol-4-yl)-ethyl]-pyrrolidin-2-yl}-phenyl)-N-hydroxy-acrylamide] | 1.4 nM | 0.8 nM |
| Cc1[nH]nc(C(C)(C)C)c1CCN1CCC[C@H]1c1ccc(/C=C/C(=O)NO)cc1 [Compound 100, (E)-3-(4-{(S)-1-[2-(3-tert-Butyl-5-methyl-1H-pyrazol-4-yl)-ethyl]-pyrrolidin-2-yl}-phenyl)-N-hydroxy-acrylamide] | 0.5 nM | 1 nM |
| CC(C)n1nnc(CCN2CCC[C@H]2c2ccc(/C=C/C(=O)NO)cc2)n1 [Compound 101, (E)-N-Hydroxy-3-(4-{(S)-1-[2-(2-isopropyl-2H-tetrazol-5-yl)-ethyl]-pyrrolidin-2-yl}-phenyl)-acrylamide] | 160 nM | 58 nM |
| CC(C)n1nnnc1CCN1CCC[C@H]1c1ccc(/C=C/C(=O)NO)cc1 [Compound 102, (E)-N-Hydroxy-3-(4-{(S)-1-[2-(1-isopropyl-1H-tetrazol-5-yl)-ethyl]-pyrrolidin-2-yl}-phenyl)-acrylamide] | 32 nM | 25 nM |
| CC(C)(C)n1nnc(CCN2CCC[C@H]2c2ccc(/C=C/C(=O)NO)cc2)n1 [Compound 104, (E)-3-(4-{(S)-1-[2-(2-tert-Butyl-2H-tetrazol-5-yl)-ethyl]-pyrrolidin-2-yl}-phenyl)-N-hydroxy-acrylamide] | 360 nM | 42 nM |
| O=C(/C=C/c1ccc([C@@H]2CCCN2CCc2nnn(C3CCC3)n2)cc1)NO [Compound 105, (E)-3-(4-{(S)-1-[2-(2-Cyclobutyl-2H-tetrazol-5-yl)-ethyl]-pyrrolidin-2-yl}-phenyl)-N-hydroxy-acrylamide] | 160 nM | 120 nM |
| O=C(/C=C/c1ccc([C@@H]2CCCN2CCc2nnn(-c3ccc([N+](=O)[O-])cc3)n2)cc1)NO [Compound 106, (E)-N-Hydroxy-3-[4-((S)-1-{2-[2-(4-nitro-phenyl)-2H-tetrazol-5-yl]-ethyl}-pyrrolidin-2-yl)-phenyl]-acrylamide] | 180 nM | 67 nM |
| O=C(/C=C/c1ccc([C@@H]2CCCN2CCc2nnnn2-c2ccc([N+](=O)[O-])cc2)cc1)NO [Compound 107, (E)-N-Hydroxy-3-[4-((S)-1-{2-[1-(4-nitro-phenyl)-1H-tetrazol-5-yl]-ethyl}-pyrrolidin-2-yl)-phenyl]-acrylamide] | 540 nM | 170 nM |
| CC(C)(C)c1[nH]nnc1CCN1CCC[C@H]1c1ccc(/C=C/C(=O)NO)cc1 [Compound 108, (E)-3-(4-{(S)-1-[2-(5-tert-Butyl-1H-[1,2,3]triazol-4-yl)-ethyl]-pyrrolidin-2-yl}-phenyl)-N-hydroxy-acrylamide] | 10 nM | 7 nM |
| Cc1nn(C)c(C)c1CCN1CCC[C@@H]1c1ccc(/C=C/C(=O)NO)cc1 [Compound 110, (E)-N-Hydroxy-3-(4-{(R)-1-[2-(1,3,5-trimethyl-1H-pyrazol-4-yl)-ethyl]-pyrrolidin-2-yl}-phenyl)-acrylamide] | 180 nM | 100 nM |
| Cc1nn(C)c(C)c1CCN1CCC[C@H]1c1ccc(CCC(=O)NO)cc1 [Compound 112, N-Hydroxy-3-(4-{(S)-1-[2-(1,3,5-trimethyl-1H-pyrazol-4-yl)-ethyl]-pyrrolidin-2-yl}-phenyl)-propionamide] | 30 nM | 10 nM |
| CC(C)n1nnnc1CCN1CCC[C@H]1c1ccc(CCC(=O)NO)cc1 [Compound 115, N-Hydroxy-3-(4-{(S)-1-[2-(1-isopropyl-1H-tetrazol-5-yl)-ethyl]-pyrrolidin-2-yl}-phenyl)-propionamide] | 32 nM | 25 nM |
